One data set relates to Luc-eGFP mRNA. Briefly: Determination of encapsulation efficiency of mRNAs (Quant-iT RiboGreen RNA kit). In kind it is physicochemical. The method, then: (§1) In this example, the total lipid phase concentration of 1 mg/mL was formulated in anhydrous ethanol at the molar ratio of ionizable lipid (Compound 1, Compound 11 or Compound 12):helper lipid (DSPC or DOPE):cholesterol:DMG-PEG2000=50%:10%:38.5%:1.5%. Luc-eGFP mRNA at the corresponding concentration was dissolved in 50 mM citric acid buffer with an aqueous buffer solution of pH4.0. The mass ratio of mRNA to the total lipids was 1:30.
(§2) LNPs were prepared using the formulation-screening chip from Micro & Nano at a total flow rate of 12 ml/min and a flow rate ratio of 1:3 between the lipid phase and the aqueous phase. The lipid nanoparticles were collected and dialyzed with PBS overnight at 4° C. to remove ethanol and acidic buffer salts. The dialysate volume was 400 times or more the sample volume. The dialyzed sample was filtered through a 0.2-μm filter membrane. Lipid nanoparticles could also be prepared by other methods, such as injection mixing, in addition to using microfluidic chips. After being dialyzed and filtered, the sample was concentrated using a 10 kDa cellulose ultrafiltration membrane. The centrifugation parameter was 1000 g to 2000 g, and the centrifugation time was 30 min to 1 hour. The centrifugation temperature was 4° C.
For mRNA-encapsulated lipid nanoparticles, the assay specified in the Quant-iT™ RiboGreen® RNA kit could be employed. The specific operations were as follows: The sample was diluted 10 to 20 folds with a TE buffer solution (10 mM Tris-HCl, 1 mM EDTA, pH 7.5). An equal volume of demulsifier (2% Triton X-100) was added to the sample to be tested and then the solution was diluted 10 to 20 folds again. The RiboGreen® reagent was diluted 100 folds in the TE buffer solution, and 100 μl of the diluted solution was added to a 96-well plate. 100 μl of the sample to be tested was added to the corresponding 96-well plate. Meanwhile, a standard curve was plotted using the mRNA standard. The fluorescence value at 520 nm excited by 480 nm excitation light was read using a microplate reader. The concentrations of the encapsulated and free mRNAs were calculated based on the standard curve.
(§3) The nucleic acid delivery efficiency of lipid nanoparticles was characterized by observing the fluorescence expression in mice. The lipid nanoparticles were prepared at a molar ratio of ionizable lipid (Compound 17, Compound 15, Compound 18, Compound 2 or MC3):DSPC:cholesterol:DSPE-PEG2000=50%:10%:39.5%:0.5%. Female C57/BL6 mice weighing 18 to 22 g were selected. After acclimation, the Luc-eGFP mRNA-encapsulated lipid nanoparticles were injected subretinally into mice (both eyes) at a dose of 0.9 μg (±10%) mRNA (1 μl, in a sterile PBS solution) per eye. In order to observe the expression of luciferase, the luciferase substrate was dissolved into a sterile PBS solution and prepared into a solution at a concentration of 30 mg/ml.

In data set [1] the test system is luciferase. Briefly: In vivo delivery of luciferase mRNA in animals, tail vein injection, chemiluminescence imaging. As to conditions: Luc-eGFP mRNA 0.5 mg/kg, mice, 6 h after injection. Also on record: species or system Female C57/BL6 mice. The method, then: as §1
The nucleic acid delivery efficiency of lipid nanoparticles was characterized by observing the fluorescence expression in mice. The Luc-eGFP mRNA-encapsulated lipid nanoparticles prepared in Example 9 were injected at a certain dose into mice via the tail vein. Female C57/BL6 mice weighing 18 to 22 g were randomly grouped, with two mice in each group. After acclimation, Luc-eGFP mRNA-encapsulated LNPs (in a sterile PBS solution) were injected via the tail vein at a dose of 0.5 mg/kg (0.5 mg here referring to the dose of mRNA). In order to observe the expression of luciferase, the luciferase substrate was dissolved into a sterile PBS solution and prepared into a solution at a concentration of 30 mg/ml.
Six hours after injection of LNPs, 150 ul of luciferase substrate solution was injected intraperitoneally into each mouse. The mice were allowed to stand for 5 min, and then anesthetized for 3 min in a carbon dioxide box. After anesthesia, the mice were put in a small animal in vivo imager for imaging.

The subject of data set [2] is luciferase. Briefly: Subretinal injection in mice, chemiluminescence from Luc-eGFP mRNA delivered by lipid nanoparticles. The conditions noted are these: LNP ionizable lipid:DSPC:cholesterol:DSPE-PEG2000 = 50:10:39.5:0.5, both eyes, 0.9 μg (±10%) mRNA per eye. It is filed as in vivo, Female C57/BL6 mice. The procedure:
as §3
Imaging in mice: 18 hours after drug administration, 150 μl of luciferase substrate solution was injected intraperitoneally into each mouse. The mice were allowed to stand for 5 min, and then anesthetized for 3 min in a carbon dioxide box. After anesthesia, the mice were put in a small animal in vivo imager for imaging.

A short description of data set [3]: Determination of particle size and polydispersity index of lipid nanoparticles (Malvern particle size analyzer). It is filed as physicochemical. The method, then:
as §1, §2
2. Determination of particle size: The particle size and polydispersity index (PDI) of the prepared lipid nanoparticles were measured using a Malvern particle size analyzer.
as §3

Where [4] appears, read: LNP ionizable lipid:DSPC:cholesterol:DSPE-PEG2000 = 50:10:39.5:0.5, Luc-eGFP mRNA.
The mark [5] stands for this setting: LNP with helper lipid DSPC, ionizable lipid:helper lipid:cholesterol:DMG-PEG2000 = 50:10:38.5:1.5, Luc-eGFP mRNA:total lipids 1:30.
Setting [6] is: LNP with helper lipid DOPE, ionizable lipid:helper lipid:cholesterol:DMG-PEG2000 = 50:10:38.5:1.5, Luc-eGFP mRNA:total lipids 1:30.

Consider `CCCCC/C=C\C/C=C\CCCCCCCCC(CCCCCCCC/C=C\C/C=C\CCCCC)OC(=O)CCCN(C)C` [MC3, DLin-MC3-DMA, reference compound], for which the “Nucleic Acid Encapsulation Efficiency” value in the data set on Luc-eGFP mRNA (setting [4]) was found to be 96.6%. Also, the “Luminous Intensity 6 h” value in the data set with luciferase [1] (LNP with helper lipid DSPC) came to 1.35E+8 p/s/cm^2/sr. The “Luminous Intensity 18 h” value with luciferase [2] is given as 5E+6 p/s/cm^2/sr. In data set [3] (setting [4]), the PDI is 0.24 and the “Particle Size” value was 149.0 nm.

On to `CCCCCCCCC(CCCC)C(=O)OCCCCCCN(CCCCCCOC(=O)C(CCCCCC)CCCCCCCC)CCOC(=O)NCCN(CC)CC` (stereo not shown) [Compound 12], for which, in the data set with Luc-eGFP mRNA (setting [5]), the “Nucleic Acid Encapsulation Efficiency” value turned out to be 97.58%. The “Luminous Intensity 6 h” value in the data set with luciferase [1] (LNP with helper lipid DSPC) turned out to be 3.1E+8 p/s/cm^2/sr. In data set [3] (setting [5]), the PDI is listed as 0.22 and the “Particle Size” value is given as 123 nm.

On to `CCCCCCCCC(CCCCCC)C(=O)OCCCCCCN(CCCCCCOC(=O)C(CCCCCC)CCCCCCCC)CCOC(=O)NCCN(CC)CC` (stereo not shown) [Compound 1], for which the “Nucleic Acid Encapsulation Efficiency” value was determined as 95.42% in the data set on Luc-eGFP mRNA (setting [6]) and 93.01% with Luc-eGFP mRNA (setting [5]). For the same molecule, the “Luminous Intensity 6 h” value is on record as 1.6E+9 p/s/cm^2/sr with luciferase [1] (LNP with helper lipid DOPE) and 3.4E+8 p/s/cm^2/sr in the data set on luciferase [1] (LNP with helper lipid DSPC). Moreover, the values for the PDI in data set [3] (setting [6]) and in data set [3] (setting [5]) were 0.082 and 0.135, respectively. For the same molecule, the “Particle Size” value in data set [3] (setting [6]) was 99.86 nm; in data set [3] (setting [5]), 111.7 nm.

With `CCCCCCCCCOC(=O)CCCCCCCN(CCCCCCCC(=O)OC(CCCCCCCC)CCCCCCCC)CCOC(=O)NCCCN(C)C` [Compound 17], in the data set on Luc-eGFP mRNA (setting [4]), the “Nucleic Acid Encapsulation Efficiency” value worked out at 99.4%. Also, the “Luminous Intensity 18 h” value in the data set on luciferase [2] is 3.4E+8 p/s/cm^2/sr. Also, in data set [3] (setting [4]), the PDI came to 0.36 and the “Particle Size” value was determined as 90.31 nm.

Turning to `CCCCCCCCC(CCCCCC)C(=O)OCCCCCCN(CCCCCCOC(=O)C(CCCCCC)CCCCCCCC)CCOC(=O)NCCN(C)CC` (stereo not shown) [Compound 2], the “Nucleic Acid Encapsulation Efficiency” value in the data set on Luc-eGFP mRNA (setting [4]) is 99.3%. The “Luminous Intensity 18 h” value in the data set on luciferase [2] worked out at 2E+8 p/s/cm^2/sr. In addition, in data set [3] (setting [4]), the PDI stood at 0.19 and the “Particle Size” value was found to be 147.2 nm.

As to `CCCCCCCCCOC(=O)CCCCCCCN(CCCCCCCC(=O)OC(CCCCCCCC)CCCCCCCC)CCOC(=O)NCCN(C)CC` [Compound 15], the “Nucleic Acid Encapsulation Efficiency” value in the data set on Luc-eGFP mRNA (setting [4]) turned out to be 98.2%. In addition, the “Luminous Intensity 18 h” value with luciferase [2] is on record as 2.6E+7 p/s/cm^2/sr. Moreover, in data set [3] (setting [4]), the PDI is reported as 0.22 and the “Particle Size” value was 149.7 nm.

On to `CCCCCCCCC(C)C(=O)OCCCCCCN(CCCCCCOC(=O)C(CCCCCC)CCCCCCCC)CCOC(=O)NCCN(CC)CC` (stereo not shown) [Compound 11], for which the “Nucleic Acid Encapsulation Efficiency” value in the data set with Luc-eGFP mRNA (setting [5]) is given as 97.13%. In the data set with luciferase [1] (LNP with helper lipid DSPC), the “Luminous Intensity 6 h” value was determined as 7.2E+7 p/s/cm^2/sr. Also, in data set [3] (setting [5]), the PDI turned out to be 0.215 and the “Particle Size” value is reported as 96.88 nm.

With `CCCCCCCCCOC(=O)CCCCCCCN(CCCCCCCC(=O)OC(CCCCCCCC)CCCCCCCC)CCOC(=O)NCCN(CC)CC` [Compound 18], the “Nucleic Acid Encapsulation Efficiency” value in the data set on Luc-eGFP mRNA (setting [4]) stood at 96.0%. In addition, the “Luminous Intensity 18 h” value in the data set with luciferase [2] amounted to 1E+7 p/s/cm^2/sr. In addition, in data set [3] (setting [4]), the PDI is 0.14 and the “Particle Size” value was found to be 121.7 nm.

The values are drawn from patent US20260294810A1, “IONIZABLE LIPID COMPOUND, LIPID CARRIER COMPRISING SAME, AND APPLICATION” (INNOVEC BIOTHERAPEUTICS, priority 2023, published 2026).
